pEC50: −log10 of the molar value. Starred links: 1 amine or outer side, 2 acyl side, 3 side chain; linkers in the order of their positions; H or OH if unused. Non-standard residues stand in square brackets, D forms with d. Residues, ends and D or L forms follow the SMILES beside them. Groups on a side chain read outwards from the residue. X2 = N=C(N)NCCC[C@@H](C(=O)[*:2])N(CCCCCC(=O)[C@H](CC(=O)O)N[*:3])[*:1]; pGlu = O=C1CC[C@@H](C(=O)O)N1

The target of one assay is T1, Orexin receptor type 2 (Homo sapiens, UniProt O43614).
T1 sequence (O43614 whole entry): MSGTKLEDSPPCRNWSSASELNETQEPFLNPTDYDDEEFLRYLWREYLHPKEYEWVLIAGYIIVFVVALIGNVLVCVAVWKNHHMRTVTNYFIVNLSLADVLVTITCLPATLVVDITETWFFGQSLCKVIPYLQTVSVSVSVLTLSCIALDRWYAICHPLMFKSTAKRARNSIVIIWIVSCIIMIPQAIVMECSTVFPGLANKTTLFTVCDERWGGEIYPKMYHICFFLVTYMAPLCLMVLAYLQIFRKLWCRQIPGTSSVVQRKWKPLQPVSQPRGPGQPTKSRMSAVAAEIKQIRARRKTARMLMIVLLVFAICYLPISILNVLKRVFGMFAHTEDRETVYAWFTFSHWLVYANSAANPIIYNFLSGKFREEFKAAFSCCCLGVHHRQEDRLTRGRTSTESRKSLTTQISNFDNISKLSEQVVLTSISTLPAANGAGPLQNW
The experiment in a line: Effective agonist concentration to the human Orexin receptor type 2 was determined using the Xlfit program. Type of assay: functional.

Assay [1] concerns the target T2, Orexin/Hypocretin receptor type 1 (Homo sapiens, UniProt O43613).
T2 sequence (O43613 whole entry): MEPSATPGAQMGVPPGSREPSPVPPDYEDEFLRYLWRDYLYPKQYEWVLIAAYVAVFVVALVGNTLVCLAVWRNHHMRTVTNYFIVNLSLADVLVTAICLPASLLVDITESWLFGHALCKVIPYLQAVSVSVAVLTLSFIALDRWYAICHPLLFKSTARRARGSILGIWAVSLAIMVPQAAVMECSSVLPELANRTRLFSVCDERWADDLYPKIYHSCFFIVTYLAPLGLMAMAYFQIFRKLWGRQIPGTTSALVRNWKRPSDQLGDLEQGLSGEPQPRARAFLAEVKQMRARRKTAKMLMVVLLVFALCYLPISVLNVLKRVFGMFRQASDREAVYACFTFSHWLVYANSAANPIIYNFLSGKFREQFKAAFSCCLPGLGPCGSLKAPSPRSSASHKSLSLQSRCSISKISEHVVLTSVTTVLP
Briefly: Effective agonist concentration to human orexin receptor type 1 determined using the Xlfit program. In kind it is functional.

Regarding `CC[C@H](C)[C@H](NC(=O)CNC(=O)[C@H](C)NC(=O)[C@H](C)NC(=O)[C@H](Cc1cnc[nH]1)NC(=O)[C@H](CC(N)=O)NC(=O)CNC(=O)[C@H](C)NC(=O)CNC(=O)[C@H](Cc1cnc[nH]1)NC(=O)[C@H](CC(C)C)NC(=O)[C@H](CC(C)C)NC(=O)[C@H](CCC(=O)O)NC(=O)[C@H](Cc1ccc(O)cc1)NC(=O)[C@H](CC(C)C)NC(=O)[C@H](CCCNC(=N)N)NC(=O)CNC(=O)[C@@H]1CCCN1C(=O)[C@H](CC(=O)O)NC(=O)[C@@H]1CCCN1C(=O)[C@H](CC(C)C)NC(=O)[C@@H]1CCCN1C(=O)[C@@H]1CCC(=O)N1)C(=O)N[C@@H](CC(C)C)C(=O)N[C@H](C(=O)N[C@@H](CC(C)C)C(=O)O)[C@@H](C)O` ([pGlu]PLPDPGRLYELLHGAGNHAAGILTL-OH), the pEC50 (as a rule, the negative decadic logarithm of the EC50, by convention in mol/L) is 6.21 on Orexin receptor type 2 and 5.34 in assay [1]. Take `CC[C@H](C)[C@H](NC(=O)CNC(=O)[C@H](C)NC(=O)[C@H](C)NC(=O)[C@H](Cc1cnc[nH]1)NC(=O)[C@H](CC(N)=O)NC(=O)CNC(=O)[C@H](CO)NC(=O)[C@H](C)NC(=O)[C@H](CCC(N)=O)NC(=O)[C@H](CC(C)C)NC(=O)[C@H](CC(C)C)NC(=O)[C@H](CCCNC(=N)N)NC(=O)[C@H](CCC(N)=O)NC(=O)[C@H](CC(C)C)NC(=O)[C@H](CCCNC(=N)N)NC(=O)CNC(=O)[C@H](C)NC(=O)[C@H](CC(C)C)NC(=O)CN)C(=O)N[C@@H](CC(C)C)C(=O)N[C@H](C(=O)N[C@@H](CCSC)C(=O)O)[C@@H](C)O` (H-GLAGRLQRLLQASGNHAAGILTM-OH): at Orexin receptor type 2, the negative-log EC50 (pEC50) was 6.62. Compound `CC[C@H](C)[C@H](NC(=O)CNC(=O)[C@H](C)NC(=O)[C@H](C)NC(=O)[C@H](Cc1cnc[nH]1)NC(=O)[C@H](CC(N)=O)NC(=O)CNC(=O)[C@H](CO)NC(=O)[C@H](C)NC(=O)[C@H](CCC(N)=O)NC(=O)[C@H](CC(C)C)NC(=O)[C@H](CC(C)C)NC(=O)[C@H](CCCNC(=N)N)NC(=O)[C@H](CCC(N)=O)NC(=O)[C@H](CC(C)C)NC(=O)[C@H](CCCNC(=N)N)NC(=O)CNC(=O)[C@@H](N)CCC(N)=O)C(=O)N[C@@H](CC(C)C)C(=O)N[C@H](C(=O)N[C@@H](CCSC)C(=O)O)[C@@H](C)O` (H-QGRLQRLLQASGNHAAGILTM-OH) had a pEC50 at Orexin receptor type 2 of 5.91. Against the preceding compound, the pEC50 is 0.71 log units lower. In turn, `CC[C@H](C)[C@H](NC(=O)CNC(=O)[C@H](C)NC(=O)[C@H](C)NC(=O)[C@H](Cc1cnc[nH]1)NC(=O)[C@H](CC(N)=O)NC(=O)CNC(=O)[C@H](CO)NC(=O)[C@H](C)NC(=O)[C@H](CCC(N)=O)NC(=O)[C@H](CC(C)C)NC(=O)[C@H](CC(C)C)NC(=O)[C@@H]1CCCN1C(=O)[C@H](CCC(N)=O)NC(=O)[C@H](CC(C)C)NC(=O)[C@H](CCCNC(=N)N)NC(=O)CNC(=O)[C@H](CCC(N)=O)NC(=O)[C@H](CC(C)C)NC(=O)CN)C(=O)N[C@@H](CC(C)C)C(=O)N[C@H](C(=O)N[C@@H](CCSC)C(=O)O)[C@@H](C)O` (H-GLQGRLQPLLQASGNHAAGILTM-OH) showed a pEC50 on Orexin receptor type 2 of 6.17. Same read-out and setting: in the case of `CC[C@H](C)[C@H](NC(=O)CNC(=O)[C@H](C)NC(=O)[C@H](C)NC(=O)[C@H](Cc1cnc[nH]1)NC(=O)[C@H](CC(N)=O)NC(=O)CNC(=O)[C@H](CO)NC(=O)[C@H](C)NC(=O)[C@H](CCC(N)=O)NC(=O)[C@H](CC(C)C)NC(=O)[C@H](CC(C)C)NC(=O)[C@H](CCCNC(=N)N)NC(=O)[C@H](CCC(N)=O)NC(=O)[C@H](CC(C)C)NC(=O)[C@H](CCCNC(=N)N)NC(=O)CNC(=O)[C@H](CCC(N)=O)NC(=O)[C@@H]1CCCN1C(=O)CN)C(=O)N[C@@H](CC(C)C)C(=O)N[C@H](C(=O)N[C@@H](CCSC)C(=O)O)[C@@H](C)O` (H-GPQGRLQRLLQASGNHAAGILTM-OH) it was 7.22. Still for that read-out and setting: as for `CC[C@H](C)[C@H](NC(=O)CNC(=O)[C@H](C)NC(=O)[C@H](C)NC(=O)[C@H](Cc1cnc[nH]1)NC(=O)[C@H](CC(N)=O)NC(=O)CNC(=O)[C@H](C)NC(=O)CNC(=O)[C@H](Cc1cnc[nH]1)NC(=O)[C@H](CC(C)C)NC(=O)[C@H](CC(C)C)NC(=O)[C@H](CCC(=O)O)NC(=O)[C@H](Cc1ccc(O)cc1)NC(=O)[C@H](CC(C)C)NC(=O)[C@H](CCCNC(=N)N)NCCCCCC(=O)[C@H](CC(=O)O)NC(=O)[C@@H]1CCCN1C(=O)[C@H](CC(C)C)NC(=O)[C@@H]1CCCN1C(=O)[C@@H]1CCC(=O)N1)C(=O)N[C@@H](CC(C)C)C(=O)N[C@H](C(=O)N[C@@H](CC(C)C)C(=O)O)[C@@H](C)O` (H-[X2]([Pro-Leu-Pro-pGlu])LYELLHGAGNHAAGILTL-OH), the figure is 6.19; as for `CC[C@H](C)[C@H](NC(=O)CNC(=O)[C@H](C)NC(=O)[C@H](C)NC(=O)[C@H](Cc1c[nH]cn1)NC(=O)[C@H](CC(N)=O)NC(=O)CNC(=O)[C@H](CO)NC(=O)[C@H](C)NC(=O)[C@H](CCC(N)=O)NC(=O)[C@H](CC(C)C)NC(=O)[C@H](CC(C)C)NC(=O)[C@H](CCCN=C(N)N)NC(=O)[C@@H]1CCCN1C(=O)[C@H](CC(C)C)NC(=O)[C@H](CCCN=C(N)N)NC(=O)CNC(=O)[C@H](CCC(N)=O)NC(=O)[C@H](CC(C)C)NC(=O)CN)C(=O)N[C@@H](CC(C)C)C(=O)N[C@H](C(=O)N[C@@H](CCSC)C(=O)O)[C@@H](C)O` (stereo in doubt; form 1), 6.55.

On to `CC[C@H](C)[C@H](NC(=O)[C@H](Cc1cnc[nH]1)NC(=O)[C@H](CC(N)=O)NC(=O)CNC(=O)[C@H](CO)NC(=O)[C@H](C)NC(=O)[C@H](CCC(N)=O)NC(=O)[C@H](CC(C)C)NC(=O)[C@H](CC(C)C)NC(=O)[C@H](CCCNC(=N)N)NC(=O)[C@H](CCC(N)=O)NC(=O)[C@H](CC(C)C)NC(=O)[C@H](CCCNC(=N)N)NC(=O)CNC(=O)[C@H](CCC(N)=O)NC(=O)[C@H](CC(C)C)NC(=O)CN)C(=O)N[C@@H](C)C(=O)NCC(=O)N[C@@H](C)C(=O)N[C@@H](CC(C)C)C(=O)N[C@H](C(=O)N[C@@H](CCSC)C(=O)O)[C@@H](C)O`, for which the pEC50 on Orexin receptor type 2 is 5.50.

Compound `CC[C@H](C)[C@H](NC(=O)CNC(=O)[C@H](C)NC(=O)[C@H](C)NC(=O)[C@H](Cc1c[nH]cn1)NC(=O)[C@H](CC(N)=O)NC(=O)CNC(=O)[C@H](C)NC(=O)CNC(=O)[C@H](Cc1c[nH]cn1)NC(=O)[C@H](CC(C)C)NC(=O)[C@@H](N)CC(C)C)C(=O)N[C@@H](CC(C)C)C(=O)N[C@H](C(=O)N[C@@H](CC(C)C)C(=O)O)[C@@H](C)O` (H-LLHGAGNHAAGILTL-OH) gave a pEC50 on Orexin receptor type 2 of less than 3.00. On the same count and under the same terms, as for `CC[C@H](C)[C@H](NC(=O)CNC(=O)[C@H](C)NC(=O)[C@H](C)NC(=O)[C@H](Cc1c[nH]cn1)NC(=O)[C@H](CC(N)=O)NC(=O)CN)C(=O)N[C@@H](CC(C)C)C(=O)N[C@H](C(=O)N[C@@H](CC(C)C)C(=O)O)[C@@H](C)O` (H-GNHAAGILTL-OH), the figure is less than 3.00; as for `CC[C@H](C)[C@H](NC(=O)CNC(=O)[C@H](C)NC(=O)[C@H](C)NC(=O)[C@H](Cc1cnc[nH]1)NC(=O)[C@H](CC(N)=O)NC(=O)CNC(=O)[C@H](CO)NC(=O)[C@H](C)NC(=O)[C@H](CCC(N)=O)NC(=O)[C@H](CC(C)C)NC(=O)[C@@H](N)CC(C)C)C(=O)N[C@@H](CC(C)C)C(=O)N[C@H](C(=O)N[C@@H](CCSC)C(=O)O)[C@@H](C)O` (H-LLQASGNHAAGILTM-OH), less than 3.00; as for `CC[C@H](C)[C@H](NC(=O)CNC(=O)[C@H](C)NC(=O)[C@H](C)NC(=O)[C@@H](N)Cc1cnc[nH]1)C(=O)N[C@@H](CC(C)C)C(=O)N[C@H](C(=O)N[C@@H](CC(C)C)C(=O)O)[C@@H](C)O` (H-HAAGILTL-OH), less than 3.00. On Orexin receptor type 2, `CC[C@H](C)[C@H](NC(=O)CNC(=O)[C@H](C)NC(=O)[C@H](C)NC(=O)[C@H](Cc1cnc[nH]1)NC(=O)[C@H](CC(N)=O)NC(=O)CNC(=O)[C@H](CO)NC(=O)[C@H](C)NC(=O)[C@H](CCC(N)=O)NC(=O)[C@H](CC(C)C)NC(=O)[C@H](CC(C)C)NC(=O)[C@H](CCCNC(=N)N)NC(=O)[C@H](CCC(N)=O)NC(=O)[C@@H]1CCCN1C(=O)[C@H](CCCNC(=N)N)NC(=O)CNC(=O)[C@H](CCC(N)=O)NC(=O)[C@H](CC(C)C)NC(=O)CN)C(=O)N[C@@H](CC(C)C)C(=O)N[C@H](C(=O)N[C@@H](CCSC)C(=O)O)[C@@H](C)O` (H-GLQGRPQRLLQASGNHAAGILTM-OH) gave a negative-log EC50 (pEC50) of 6.10. The same measure, in the same setting: as for `CC[C@H](C)[C@H](NC(=O)CNC(=O)[C@H](C)NC(=O)[C@H](C)NC(=O)[C@H](Cc1c[nH]cn1)NC(=O)[C@H](CC(N)=O)NC(=O)CNC(=O)[C@H](CO)NC(=O)[C@H](C)NC(=O)[C@H](CCC(N)=O)NC(=O)[C@H](CC(C)C)NC(=O)[C@H](CC(C)C)NC(=O)[C@H](CCCN=C(N)N)NC(=O)[C@@H]1CCCN1C(=O)[C@H](CC(C)C)NC(=O)[C@H](CCCN=C(N)N)NC(=O)CNC(=O)[C@H](CCC(N)=O)NC(=O)[C@H](CC(C)C)NC(=O)CN)C(=O)N[C@@H](CC(C)C)C(=O)N[C@H](C(=O)N[C@@H](CCSC)C(=O)O)[C@@H](C)O` (stereo in doubt; form 2), the figure is 6.44.

These data come from ChEMBL document CHEMBL1148480, “Structure-activity studies of orexin a and orexin B at the human orexin 1 and orexin 2 receptors led to orexin 2 receptor selective and orexin 1 receptor preferring ligands” (J Med Chem, 2004).
